The values below are quoted from earlier work in patent publication US12377109B2, “Formulation and noncovalent stabilization of olivetolic acid derivatives” (MINGOWOOD PHARMACAL LLC, priority 2020, dated 2025).

Read-outs that look alike come from different tables or passages of the source.

For series [1] the following is noted: for first-order rate constant k for decarboxylation: 100° C.
The test system of series [2] is lithium chloride- and cisplatin-induced vomiting. The settings on record: mice and shrews.
In series [3] the test system is MDA-MB-231 human breast cancer cells. The settings on record: MDA-MB-231 cells.
[4] abbreviates: 30° C., neat substances and solutions, reviewed studies.
The mark [5] stands for this setting: 40° C., neat substances and solutions, reviewed studies.

Consider `CCCCCc1cc2c(c(O)c1C(=O)O)[C@@H]1C=C(C)CC[C@H]1C(C)(C)O2` [THCA, (6aR,10aR)-1-hydroxy-6,6,9-trimethyl-3-pentyl-6a,7,8,10a-tetrahydrobenzo[c]chromene-2-carboxylic acid], for which the half-life result is on record as “about 12 weeks” in series [1] (setting [4]) and “about 4 weeks” in series [1] (setting [5]). Moreover, the loss entry in series [1] (40% and 90% ethanol tinctures, 4° C., dark, 6 months, Peschel) is “over 50%”. Further, in series [1], the “first-order rate constant k for decarboxylation” value is given as 4.93×10^−4.

Turning to `C=C(C)C1CCC(C)=CC1c1c(O)cc(CCCCC)c(C(=O)O)c1O` (stereo not drawn) [CBDA, 3-p-mentha-1,8-dien-3-yl-6-pentyl-beta-resorcylic acid], the pKa is reported as 3.4. Besides, the “lowest dose suppressing vomiting” value in series [2] is 0.01 mg/kg. The “effect on cell migration” value in series [3] is listed as “inhibits migration”. For the same compound, the “time to 10% degradation” value in series [1] (25° C., extrapolated from Wang's data) is given as “approximately 3.7 weeks”. Besides, in series [1] (30° C., calculated from Citti et al.), the half-life is 4.5 weeks. For the same compound, the half-life in series [1] (30° C., calculated from Wang et al.) is listed as 11.6 weeks. Moreover, the half-life result in series [1] (30° C., estimated for the Cerilliant product) is listed as “about 12 weeks”. Besides, the half-life entry in series [1] (setting [4]) is “about 12 weeks”. Moreover, the decrease in potency in series [1] (40° C. over 4 weeks, Cerilliant standard solution in acetonitrile) was 69.8%. In addition, the half-life in series [1] (40° C., from Wang et al. parameters) was 4.06 weeks. Besides, the half-life entry in series [1] (setting [5]) is listed as “about 4 weeks”. Also, the decay constant in series [1] (80° C., Wang et al.) was 5.35e-05 s⁻¹. Further, in series [1] (80° C., Wang's estimate), the half-life is 3.6 h. The half-life result in series [1] (80° C., in hemp oil as extracted, Citti et al.) is listed as “approximately 4.9 hours”. In series [1], the “first-order rate constant k for decarboxylation” value is 4.13×10^−4. In addition, in series [1] (Wang et al.), the “activation energy of degradation” value was 27.5 kcal/mol and the “prefactor in the expression for the degradation rate constant” value was 2e+12 s⁻¹. For the same compound, in series [1] (in hemp oil, Citti et al.), the “activation energy of degradation” value is 21.4 kcal/mol and the prefactor is 6.9e+08 L/s.

Turning to `CCCCCc1cc(O)c(C/C=C(\C)CCC=C(C)C)c(O)c1C(=O)O` [CBGA, 3-[(2E)-3,7-dimethylocta-2,6-dienyl]-2,4-dihydroxy-6-pentylbenzoic acid], the pKa is 2.9.

Usually pKa stands for the negative logarithm of the acid dissociation constant.
